As usually defined, the IC50 is the concentration that inhibits the measured activity by half. As usually defined, the inhibition is the change of the read-out against control, counted positive when it falls. Lower therefore signals a response near the control.

Common to all, as to type: cell-based
One experiment has as its system BT-474. Kind of experiment: WST-1 proliferation assay, BT-474. Conditions: Homo sapiens; Breast BT-474, 72 h; read-out: Anti-proliferative activity IC50 (μM) ± SD. From the text: (§1) Several cancer cell lines were used: breast cancer cells (MDA-MB-231 (ATTCC® Number HTB-26™), MDA-MB-436 (ATTCC® Number HTB-130™), MDA-MB-438, BT-474 (ATTCC® Number HTB-20™)); cervical cancer cells (HeLa (ATTCC® Number CCL-2™)); colon cancer cells (HCT-116 (ATTCC® Number CCL-247™) and HT-29 (ATTCC® Number HTB-38™)); osteosarcoma cells (U2OS (ATTCC® Number HTB-96™)); pancreas cancer cells (MIA PaCa-2 (ATTCC® Number CRL-1420™) and Panc-10.5 (ATTCC® Number CRL-2547™)); prostate cancer cells (PC-3 (ATTCC® Number CRL-1435™) and LNCaP (ATTCC® Number CRL-1740™)); brain cancer cells (U87 glioblastoma (ATTCC® Number HTB-14™) and SH-SYSY neuroblastoma (ATTCC® Number CRL-2266™)). […]
(§2) After observation of cells under the microscope, old media were removed and the adherent cells washed gently twice with PBS (Phosphate Buffer Saline, —Ca^2+, —Mg^2+, Lonza cat no: 17-512F/12). […] 50 μl of this solution were transferred in 20 μl of isotonic solution and the cells were counted by count cellular (Beckman Coulter). […]
(§3) The cell proliferation WST-1 assay is a colorimetric assay for the quantification of cell proliferation and viability, based on the enzymatic cleavage of the tetrazolium salt WST-1 added to the culture medium, to a water soluble colored formazan dye, detected by absorbance at 450 nm, by mitochondrial succinate-tetrazolium reductase in viable cells. […]
A general note: Tetrazolium dyes change colour on reduction, which living cells bring about.

For a further experiment, the system named is HCT-116. Kind of experiment: WST-1 proliferation assay, HCT-116. Conditions: Homo sapiens; for IC50: Colon HCT-116, 72 h, read-out: Anti-proliferative activity IC50 (μM) ± SD; for inhibition at 0.1 µM: HCT-116, 0.1 μM; for inhibition at 0.5 µM: HCT-116, 0.5 μM; for inhibition at 1 µM: HCT-116, 1 μM. From the text: Several cancer cell lines were used: breast cancer cells (MDA-MB-231 (ATTCC® Number HTB-26™), MDA-MB-436 (ATTCC® Number HTB-130™), MDA-MB-438, BT-474 (ATTCC® Number HTB-20™)); cervical cancer cells (HeLa (ATTCC® Number CCL-2™)); colon cancer cells (HCT-116 (ATTCC® Number CCL-247™) and HT-29 (ATTCC® Number HTB-38™)); osteosarcoma cells (U2OS (ATTCC® Number HTB-96™)); pancreas cancer cells (MIA PaCa-2 (ATTCC® Number CRL-1420™) and Panc-10.5 (ATTCC® Number CRL-2547™)); prostate cancer cells (PC-3 (ATTCC® Number CRL-1435™) and LNCaP (ATTCC® Number CRL-1740™)); brain cancer cells (U87 glioblastoma (ATTCC® Number HTB-14™) and SH-SYSY neuroblastoma (ATTCC® Number CRL-2266™)).
(§4) All the cancer cell lines were maintained in cultured in DMEM GlutaMAX™ (GIBCO Invitrogen, France, cat no 31966047) enhanced with 10% foetal bovine serum (GIBCO Invitrogen, France, cat no 10270-106) and 1% penicillin G/streptomycin (GIBCO Invitrogen, France, cat no 15140-122). Only Panc-10.5 cells were cultivated in RPMI 1640 medium (Gibco) supplemented with 2 mM L-glutamine, 1.5 g/L sodium bicarbonate, 4.5 g/L glucose, 10 mM HEPES, 1 mM sodium pyruvate, 10 Units/ml human insulin, […] (SVF): 15% (75 ml in 500 ml of medium).
Cells were grown as subconfluent monolayer and cultured in 75 cm^2 flasks at 37° C., 5% CO2 in a humidified atmosphere, and medium was changed every two days. Only cells from passages 2-6 were used for the experiments.
After observation of cells under the microscope, old media were removed and the adherent cells washed gently twice with PBS (Phosphate Buffer Saline, —Ca^2+, —Mg^2+, Lonza cat no: 17-512F/12). All cells were detached with 3 ml of trypsin/EDTA (chelator of calcium and magnesium ions) (Lonza), incubated for 5 min at 37° C., and examined using a microscope to ensure that the cells were detached and floating. Then, 3 ml TNS (Trypsin Neutralizing Solution, Lonza, France, cat no CC-5002) or of culture medium were added to inactivate the trypsin, and the cell suspension was transferred in a falcon and centrifuged for 7 min at 1400 rpm. The supernatant was removed and the cell pellet resuspended in […] of culture medium. 50 μl of this solution were transferred in 20 μl of isotonic solution and the cells were counted by count cellular (Beckman Coulter). At day 0, 200 μl of cellular suspension (3.10^3 cells/well for the HUVEC cells, breast cancer cells (MDA-MB-231 1.10^4 cells/well, MDA-MB-436 1.10^4 cells/well, MDA-MB-438 2.10^4 cells/well, BT-474 2.5.10^4 cells/well); cervical cancer cells (HeLa 5.000 cells/well); colon cancer cells (HCT-116 5.10^3 cells/well, HCT-29 1.1.10^4 cells/well); osteosarcoma cells (U2OS 8.10^3 cells/well); pancreas cancer cells (MIA PaCa-2 5.10^3 cells/well, Panc-10.5 1.5.10^4 cells/well); prostate cancer cells (PC-3 4.10^3 cells/well, LNCaP 2.10^4 cells/well); brain cancer cells (U87 5.10^3 cells/well, SH-SYSY 8.10^4 cells/well)) were then plated on 96 well plates and incubated at 37° C. in a humidified atmosphere of 5% CO2 for 24 h.
At day 1, the compounds 1 or 2 of the invention were added at increasing concentrations (0.1-10 μM) in the wells and plates were incubated at 37° C. in a humidified atmosphere of 5% CO2 for 72 h.
The cell proliferation WST-1 assay is a colorimetric assay for the quantification of cell proliferation and viability, based on the enzymatic cleavage of the tetrazolium salt WST-1 added to the culture medium, to a water soluble colored formazan dye, detected by absorbance at 450 nm, by mitochondrial succinate-tetrazolium reductase in viable cells. An augmentation in enzyme activity will then lead to an increase in the amount of formazan dye formed, which directly correlates to the number of metabolically active cells in the culture.
After an incubation period of 72 h, at day 4, were prepared the 19 ml medium with reagent WST-1 1 ml ([…]). The medium was removed from the 96 microplate and 200 μl of solution WST-1/medium were added for each well. […]

For a further experiment, the system named is MIA PaCa-2. Nature of the experiment: WST-1 proliferation assay, MIA PaCa-2. Conditions: Homo sapiens; Pancreas MIA PaCa-2, 72 h; read-out: Anti-proliferative activity IC50 (μM) ± SD.
Description: as §1, §2, §3

A further experiment has as its system RAJI. Kind of experiment: WST-1 proliferation assay, RAJI. Conditions: Homo sapiens; Burkitt's lymphoma RAJI; read-out: Anti-proliferative activity IC50 (μM) ± SD. How it is done: as §4
(§5) Cells were grown as subconfluent monolayer and cultured in 75 cm^2 flasks at 37° C., 5% CO2 in a humidified atmosphere, and medium was changed every two days. […]
as §3
(§6) After an incubation period of 72 h, at day 4, were prepared the 19 ml medium with reagent WST-1 1 ml ([…]). […] The cells were incubated at 37° C. in a humidified atmosphere of 5% CO2 for 1 h 30 and the absorbance at 450-655 nm was measured by Microplate Manager 5.2 (Bio-Rad).

In a further experiment the test system is VAL. Nature of the experiment: WST-1 proliferation assay, VAL. Conditions: Homo sapiens; B lymphoma VAL; read-out: Anti-proliferative activity IC50 (μM) ± SD. How it is done:
as §4, §5, §3, §6

The next experiment relates to GRANTA-519. Kind of experiment: WST-1 proliferation assay, GRANTA-519. Conditions: Homo sapiens; Mantle cell lymphoma GRANTA-519; read-out: Anti-proliferative activity IC50 (μM) ± SD. As to the method: as §4, §5, §3, §6
For a further experiment, the system named is U266. Kind of experiment: WST-1 proliferation assay, U266. The following applies: Homo sapiens, U-266; Myeloma U266; read-out: Anti-proliferative activity IC50 (μM) ± SD. As to the method:
as §4, §5, §3, §6

A further experiment deals with MDA-MB-438. Nature of the experiment: WST-1 proliferation assay, MDA-MB-438. The following applies: Homo sapiens; MDA-MB-438, 0.05 μM.
For another experiment, the system named is U2OS. Kind of experiment: WST-1 proliferation assay, U2OS. Conditions: Homo sapiens.
The next experiment deals with PC-3. Kind of experiment: WST-1 proliferation assay, PC-3. Conditions: Homo sapiens; PC-3, 0.05 μM.

With `Cc1ccc(-c2nc3ccccc3[nH]2)cc1NC(=S)NC(=O)c1ccc2c(c1)OCCO2` [Compound 1, N-[5-(1H-benzimidazol-2-yl)-2-methylphenyl]-N′-(2,3-dihydro-1,4-benzodioxin-6-ylcarbonyl)thiourea], the IC50 in the experiment on BT-474 amounted to 2 µM; with HCT-116, 1 µM; in the experiment with MIA PaCa-2, 1 µM; in the experiment with RAJI, 1.5 ± 0.01 µM; in the experiment with VAL, 1.8 ± 0.04 µM; in the experiment on GRANTA-519, 1 µM. The half-inhibitory concentration (IC50) in the experiment on U266 amounted to 2 µM. For the same molecule, at 0.1 µM the inhibition in the experiment with HCT-116 was 7%. 0.5 µM produced 51% inhibition in the experiment with HCT-116. In the experiment with HCT-116, the inhibition at 1 µM turned out to be 56%. The inhibition at 0.05 µM in the experiment with MDA-MB-438 was 2%; in the experiment on U2OS it was 9%; in the experiment on PC-3 it was 0%.

Take `O=C(NC(=S)Nc1cccc(-c2nc3ccccc3[nH]2)c1)c1ccc2c(c1)OCCO2` [Compound 2, N-[3-(1H-benzimidazol-2-yl)phenyl]-N′-(2,3-dihydro-1,4-benzodioxin-6-ylcarbonyl)thiourea]: the IC50 in the experiment on BT-474 came to 1.6 ± 0.06 µM; in the experiment with HCT-116, 1 µM; in the experiment with MIA PaCa-2, 1 µM; with RAJI it was 1.3 ± 0.04 µM; with VAL, 1 µM; with GRANTA-519, 0.5 ± 0.02 µM. In addition, in the experiment on U266, the IC50 was 1.5 ± 0.04 µM. Further, 0.1 µM produced 49% inhibition in the experiment with HCT-116. Also, at 0.5 µM the inhibition with HCT-116 was 58%. In the experiment with HCT-116, the inhibition at 1 µM was 60%. Further, the inhibition at 0.05 µM worked out at 13% in the experiment on MDA-MB-438, 18% in the experiment on U2OS and 0% in the experiment on PC-3.

Source of the values: patent publication US20130041005A1, “PHARMACEUTICAL COMPOSITIONS COMPRISING NEUROPILIN INHIBITORS, AND THEIR USE FOR THE PREVENTION AND/OR TREATMENT OF ANGIOGENIC DISORDERS AND CANCERS” (TRAGEX PHARMA, priority 2011, published 2013).
